# Biological target: T1, F1FO-ATP synthase (FO domain, subunit c ring with subunit a) (Mycobacteroides abscessus, UniProt B1MLV6+B1MLV7)
# T1 construct: gene atpE; native F1FO-ATP synthase in inverted-membrane vesicles of M. subsp. abscessus R variant; with subunit a (atpB); whole complex α3:β3:γ:ε:b-δ:b’:a:c9
# Assay: ATP synthesis inhibition in inverted-membrane vesicles (luminescence)
# Format: biochemical
smiles,measurement,value
COc1cc([C@](O)(CCN(C)C)[C@@H](c2cc3cc(Br)ccc3nc2OC)c2ccnc(OC)c2OC)cc(OC)n1 [TBAJ-5307],IC50,1.4 nM

# Source: publication PMC10840338, “High efficacy of the F-ATP synthase inhibitor TBAJ-5307 against nontuberculous mycobacteria in vitro and in vivo” (The Journal of Biological Chemistry, 2024)
